Results reported in ChEMBL document CHEMBL5030535, “Conjugates Derived from Lapatinib Derivatives with Cancer Cell Stemness Inhibitors Effectively Reversed Drug Resistance in Triple-Negative Breast Cancer” (J Med Chem, 2021).
Active and inactive are the calls of the source. The calls are words filed in the database; no cut-off is given here.

Columns and labels:
MCF7 = assay: Antiproliferative activity against human MCF7 cells assessed as inhibition of cell growth measured after 72 hrs by MTT assay; assay type: functional, cell-based; settings: MCF7, 72 h
MDA-MB-231 [1] = assay: Antiproliferative activity against human MDA-MB-231 cells assessed as inhibition of cell growth measured after 72 hrs by MTT assay; assay type: functional, cell-based; settings: MDA-MB-231, 72 h
MDA-MB-231 [2] = assay: Antiproliferative activity against human drug tolerant MDA-MB-231/lapatinib cells assessed as inhibition of cell growth in measured after 72 hrs by MTT assay; assay type: functional, cell-based; settings: MDA-MB-231, 72 h
HUVEC = assay: Antiproliferative activity against human HUVEC cells assessed as inhibition of cell growth in measured after 72 hrs by MTT assay; assay type: cell-based
[3] = Resistant factor, ratio of IC50 for antiproliferative activity against drug-tolerant human MDA-MB-231 cells to IC50 for human MDA-MB-231 cells; assay type: functional
MDA-MB-231 [4] = assay: Antiproliferative activity against drug-tolerant human MDA-MB-231/lapatinib cells assessed as CD44-positive cells measured after 24 hrs by MTT assay; assay type: functional, cell-based; settings: MDA-MB-231, 24 h
MDA-MB-231 [5] = assay: Antiproliferative activity against drug-tolerant human MDA-MB-231/lapatinib cells assessed as CD44+/CD24- cells measured at 20 uM after 24 hrs by MTT assay; assay type: functional
MDA-MB-231 [6] = assay: Inhibition of cell migration in human drug-tolerant MDA-MB-231/lapatinib cells at 20 uM; assay type: functional
MDA-MB-231 [7] = assay: Inhibition of Wnt/beta-Catenin signaling in drug-tolerant human MDA-MB-231/lapatinib cells assessed as reduction in beta-catenin level at 20 uM incubated for 24 hrs by Western blot analysis
MDA-MB-231 [8] = assay: Inhibition of Wnt/beta-Catenin signaling in drug-tolerant human MDA-MB-231/lapatinib cells assessed as reduction in p-GSK3beta level at 20 uM incubated for 24 hrs by Western blot analysis
[9] = molecular target: T1, Aldehyde dehydrogenase 1A1 (Homo sapiens, UniProt P00352); assay: Inhibition of ALDH1A1 in human drug-tolerant MDA-MB-231/lapatinib cells assessed as after 24 hrs
T1 sequence (P00352 whole entry): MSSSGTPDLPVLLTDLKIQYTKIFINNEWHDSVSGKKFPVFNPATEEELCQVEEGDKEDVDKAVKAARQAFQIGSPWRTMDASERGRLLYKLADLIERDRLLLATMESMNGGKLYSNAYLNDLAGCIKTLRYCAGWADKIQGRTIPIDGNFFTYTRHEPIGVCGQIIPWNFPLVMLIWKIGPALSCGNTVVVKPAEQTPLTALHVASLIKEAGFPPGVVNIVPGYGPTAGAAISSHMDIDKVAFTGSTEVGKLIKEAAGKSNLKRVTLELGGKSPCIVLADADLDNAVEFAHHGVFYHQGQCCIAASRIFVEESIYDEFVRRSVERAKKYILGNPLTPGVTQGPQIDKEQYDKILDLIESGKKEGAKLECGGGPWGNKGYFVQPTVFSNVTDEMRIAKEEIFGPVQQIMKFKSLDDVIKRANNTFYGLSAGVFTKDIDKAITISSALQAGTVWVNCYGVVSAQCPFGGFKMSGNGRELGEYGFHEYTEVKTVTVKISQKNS

| IC50 (MCF7) | IC50 (MDA-MB-231 [1]) | Structure (SMILES) | IC50 (MDA-MB-231 [2]) | IC50 (HUVEC) | Ratio IC50 [3] | IC50 (MDA-MB-231 [4]) | inhibition at 20 µM (MDA-MB-231 [5]) | inhibition at 20 µM (MDA-MB-231 [6]) | inhibition (MDA-MB-231 [7]) | inhibition (MDA-MB-231 [8]) | IC50 [9] |
| --- | --- | --- | --- | --- | --- | --- | --- | --- | --- | --- | --- |
| 6.38 µM | 2.98 µM | CS(=O)(=O)CCN(Cc1ccc(-c2ccc3ncnc(Nc4ccc(OCc5cccc(F)c5)c(Cl)c4)c3c2)o1)C(=O)CCC(=O)OCCN1CCN(CCCN2c3ccccc3Sc3ccc(C(F)(F)F)cc32)CC1 | 3.42 µM | 39.6 µM | 1.17 |  |  |  |  |  |  |
| 12.6 µM | 5.86 µM | CS(=O)(=O)CCNCc1ccc(-c2ccc3ncnc(Nc4ccc(OCc5cccc(F)c5)c(Cl)c4)c3c2)o1 [LAPATINIB] | 29.4 µM | 47.3 µM |  | 30.8 µM | 15.7% | 52.6% | Active | Active |  |
| 11.4 µM | 11 µM | CC(=O)c1cc2c(o1)C(=O)c1ccccc1C2=O [NAPABUCASIN] | 9.68 µM | 41.3 µM | 0.88 |  |  |  |  |  | 0.425 µM |
| 3.97 µM | 3.61 µM | CC(OC(=O)CCC(=O)N(CCS(C)(=O)=O)Cc1ccc(-c2ccc3ncnc(Nc4ccc(OCc5cccc(F)c5)c(Cl)c4)c3c2)o1)c1cc2c(o1)C(=O)c1ccccc1C2=O (stereo not given) | 5.82 µM | 56.6 µM | 1.62 |  |  |  |  |  |  |
